According to ChEMBL document CHEMBL1201862, “PubChem BioAssay data set” (2004):
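Briefly, cells in 96-well plates were exposed to five compound concentrations for 48 h, and endpoints were estimated by linear interpolation. GI50 marks 50% less growth.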 The source made the active and inactive calls. Cut-off read from the data, not from the text of the source: active = GI50 up to about 1.1 µM and inactive = higher. Where a SMILES comes first, the peptide text is derived from it. [ ]: non-standard residue; d: D form. ξ: configuration not given here. ξThz(5,5-Me2) = CC1(C)SCNC1C(=O)O

Columns and labels:
Experiment in all cases: DTP human tumour cell line panel, 48 h
HT-29 = tested on: HT-29
SK-MEL-2 = tested on: SK-MEL-2
MDA-MB-435 = tested on: MDA-MB-435
NCI-H226 = tested on: NCI-H226
DU-145 = tested on: DU-145
NCI-H23 = tested on: NCI-H23
SW-620 = tested on: SW-620
K562 = tested on: K562
HCT-15 = tested on: HCT-15
PC-3 = tested on: PC-3
HCT-116 = tested on: HCT-116
HCC 2998 = tested on: HCC 2998
SK-MEL-5 = tested on: SK-MEL-5
EKVX = tested on: EKVX
SF-268 = tested on: SF-268
OVCAR-3 = tested on: OVCAR-3
NCI/ADR-RES = tested on: NCI/ADR-RES
NCI-H522 = tested on: NCI-H522
Malme-3M = tested on: Malme-3M
SK-MEL-28 = tested on: SK-MEL-28

Structure (SMILES)	GI50 (HT-29)	GI50 (SK-MEL-2)	GI50 (MDA-MB-435)	GI50 (NCI-H226)	GI50 (DU-145)	GI50 (NCI-H23)	GI50 (SW-620)	GI50 (K562)	GI50 (HCT-15) [µM]	GI50 (PC-3)	GI50 (HCT-116)	GI50 (HCC 2998)	GI50 (SK-MEL-5)	GI50 (EKVX)	GI50 (SF-268)	GI50 (OVCAR-3)	GI50 (NCI/ADR-RES)	GI50 (NCI-H522)	GI50 (Malme-3M)	GI50 (SK-MEL-28)
CCOC(=O)C(CCc1ncnc2c1ncn2Cc1ccccc1)(CCc1ncnc2c1ncn2Cc1ccccc1)C(=O)OCC	42.9 µM (inactive)	44.1 µM (inactive)	52.1 µM (inactive)	27.7 µM (inactive)	89.3 µM (inactive)	46.1 µM (inactive)	> 100 µM (inactive)	42.5 µM (inactive)	52.7	27 µM (inactive)	51.4 µM (inactive)	19.9 µM (inactive)	48.5 µM (inactive)	63.7 µM (inactive)	69.5 µM (inactive)	90.8 µM (inactive)	49.7 µM (inactive)	33.9 µM (inactive)	61.7 µM (inactive)	98.9 µM (inactive)
C1CCNCC1.S=C(S)N1CCCCC1	–	85.3 µM (inactive)	199 µM (inactive)	192 µM (inactive)	140 µM (inactive)	62.2 µM (inactive)	0.573 µM (active)	0.601 µM (active)	88.9	37.7 µM (inactive)	14.1 µM (inactive)	100 µM (inactive)	1.74 µM (inactive)	111 µM (inactive)	75.7 µM (inactive)	71 µM (inactive)	19.3 µM (inactive)	0.276 µM (active)	19.1 µM (inactive)	48.6 µM (inactive)
Cn1c(=O)c2sc3c4sc5c(=O)n(C)c6ccccc6c5c4sc3c2c2ccccc21	> 100 µM (inactive)	> 100 µM (inactive)	> 100 µM (inactive)	> 100 µM (inactive)	> 100 µM (inactive)	> 100 µM (inactive)	> 100 µM (inactive)	> 100 µM (inactive)	> 100	> 100 µM (inactive)	> 100 µM (inactive)	> 100 µM (inactive)	> 100 µM (inactive)	> 100 µM (inactive)	> 100 µM (inactive)	> 100 µM (inactive)	> 100 µM (inactive)	> 100 µM (inactive)	> 100 µM (inactive)	> 100 µM (inactive)
COc1ccc([N+](=O)[O-])cc1[I+]c1cc([N+](=O)[O-])ccc1OC	38 µM (inactive)	27.5 µM (inactive)	21.3 µM (inactive)	53.2 µM (inactive)	> 100 µM (inactive)	55.1 µM (inactive)	45.3 µM (inactive)	35 µM (inactive)	41.1	52 µM (inactive)	89.5 µM (inactive)	42.2 µM (inactive)	12.4 µM (inactive)	33.8 µM (inactive)	25.1 µM (inactive)	54.1 µM (inactive)	> 100 µM (inactive)	27 µM (inactive)	4.47 µM (inactive)	7.64 µM (inactive)
CCOC(=O)/C(=C/Nc1c(C)n(C)n(-c2ccccc2)c1=O)C(C)=O	–	> 100 µM (inactive)	> 100 µM (inactive)	> 100 µM (inactive)	> 100 µM (inactive)	> 100 µM (inactive)	> 100 µM (inactive)	> 100 µM (inactive)	> 100	> 100 µM (inactive)	> 100 µM (inactive)	> 100 µM (inactive)	> 100 µM (inactive)	> 100 µM (inactive)	–	> 100 µM (inactive)	> 100 µM (inactive)	> 100 µM (inactive)	> 100 µM (inactive)	–
CC(C)NC(=O)OCc1c(COC(=O)NC(C)C)n(C)c2c1ccc1ccccc12	3.34 µM (inactive)	1.78 µM (inactive)	1.52 µM (inactive)	1.82 µM (inactive)	3.1 µM (inactive)	1.54 µM (inactive)	1.37 µM (inactive)	0.171 µM (active)	1.54	4.43 µM (inactive)	1.45 µM (inactive)	2.88 µM (inactive)	2.34 µM (inactive)	2.43 µM (inactive)	1.9 µM (inactive)	2.97 µM (inactive)	2.29 µM (inactive)	0.0417 µM (active)	0.877 µM (active)	1.99 µM (inactive)
COc1ccc(N2C(=O)CSC2c2cc3cc(Br)ccc3nc2Cl)cc1 (centres undefined)	> 50 µM (inactive)	35.6 µM (inactive)	23.7 µM (inactive)	> 50 µM (inactive)	> 50 µM (inactive)	> 50 µM (inactive)	> 50 µM (inactive)	14.1 µM (inactive)	31.5	> 50 µM (inactive)	> 50 µM (inactive)	> 50 µM (inactive)	37.4 µM (inactive)	> 50 µM (inactive)	> 50 µM (inactive)	> 50 µM (inactive)	44.1 µM (inactive)	27.4 µM (inactive)	> 50 µM (inactive)	> 50 µM (inactive)
C=C(Cl)C(C)(Cl)CCC(Br)C(C)(C)Cl (centres undefined)	15.8 µM (inactive)	19.3 µM (inactive)	19.4 µM (inactive)	41.8 µM (inactive)	20.9 µM (inactive)	19.1 µM (inactive)	16.9 µM (inactive)	33.9 µM (inactive)	–	25.6 µM (inactive)	15.2 µM (inactive)	19.5 µM (inactive)	16.9 µM (inactive)	47.2 µM (inactive)	33.2 µM (inactive)	18.2 µM (inactive)	29.4 µM (inactive)	11.2 µM (inactive)	17.1 µM (inactive)	21.2 µM (inactive)
COc1ccc(OC)c(/C=C/c2ccnc3ccccc23)c1	0.321 µM (active)	–	0.167 µM (active)	0.441 µM (active)	0.525 µM (active)	0.346 µM (active)	0.366 µM (active)	0.191 µM (active)	0.372	0.514 µM (active)	0.377 µM (active)	1.24 µM (inactive)	0.272 µM (active)	0.463 µM (active)	0.647 µM (active)	0.269 µM (active)	0.255 µM (active)	0.281 µM (active)	2.07 µM (inactive)	0.574 µM (active)
CC1SCc2nc3ccccc3n21 (centres undefined)	> 100 µM (inactive)	> 100 µM (inactive)	> 100 µM (inactive)	3.58 µM (inactive)	> 100 µM (inactive)	> 100 µM (inactive)	–	> 100 µM (inactive)	> 100	> 100 µM (inactive)	> 100 µM (inactive)	> 100 µM (inactive)	> 100 µM (inactive)	> 100 µM (inactive)	> 100 µM (inactive)	> 100 µM (inactive)	> 100 µM (inactive)	> 100 µM (inactive)	> 100 µM (inactive)	> 100 µM (inactive)
CC(=O)N(O)c1ccc(-c2nc3ccccc3s2)cc1	46.6 µM (inactive)	66.7 µM (inactive)	86.9 µM (inactive)	24.2 µM (inactive)	> 100 µM (inactive)	> 100 µM (inactive)	> 100 µM (inactive)	> 100 µM (inactive)	> 100	> 100 µM (inactive)	68.5 µM (inactive)	61.9 µM (inactive)	39.2 µM (inactive)	–	74.6 µM (inactive)	52.2 µM (inactive)	28.4 µM (inactive)	24.5 µM (inactive)	31.3 µM (inactive)	80.7 µM (inactive)
Cc1nc2c(n1CCCl)C(=O)c1ccccc1C2=O	15.8 µM (inactive)	–	15.3 µM (inactive)	18.7 µM (inactive)	35.4 µM (inactive)	29.9 µM (inactive)	23 µM (inactive)	16 µM (inactive)	7.87	8.43 µM (inactive)	16.1 µM (inactive)	21.7 µM (inactive)	> 10 µM (inactive)	53.8 µM (inactive)	22 µM (inactive)	25.4 µM (inactive)	16.2 µM (inactive)	16.7 µM (inactive)	5.82 µM (inactive)	42.8 µM (inactive)
CSCC[C@H](NC(=O)[C@H](CC(C)C)NC(=O)[C@H](Cc1c[nH]cn1)NC(=O)CNC(=O)C1N(C(=O)[C@@H](C)NC(=O)[C@H](Cc2c[nH]c3ccccc23)NC(=O)[C@H](CCC(N)=O)NC(=O)[C@@H](N)CC(N)=O)CSC1(C)C)C(N)=O (some centres undefined) (H-NQW[dA][ξThz(5,5-Me2)]GHLM-NH2)	> 25 µM (inactive)	–	> 25 µM (inactive)	> 25 µM (inactive)	> 25 µM (inactive)	> 25 µM (inactive)	> 25 µM (inactive)	> 25 µM (inactive)	> 25	> 25 µM (inactive)	> 25 µM (inactive)	> 25 µM (inactive)	> 25 µM (inactive)	> 25 µM (inactive)	> 25 µM (inactive)	> 25 µM (inactive)	> 25 µM (inactive)	> 25 µM (inactive)	> 25 µM (inactive)	> 25 µM (inactive)
NNC(=O)COc1nc(-c2cccs2)nc2ccc(I)cc12	34.4 µM (inactive)	24.5 µM (inactive)	20.1 µM (inactive)	19.9 µM (inactive)	21.7 µM (inactive)	15.3 µM (inactive)	34.5 µM (inactive)	–	20.7	25.4 µM (inactive)	16.6 µM (inactive)	20 µM (inactive)	20.1 µM (inactive)	18.9 µM (inactive)	20.8 µM (inactive)	15.9 µM (inactive)	28.1 µM (inactive)	18.7 µM (inactive)	17 µM (inactive)	24.8 µM (inactive)
